One data set concerns AR-positive cells. In words: Long-term colony formation assay. It is filed as cell-based, human. The following applies: 50 nM THZ1, 12-14 days. As to the method:
For the long-term colony formation assay, 10,000-50,000 cells/well in six-well plates (n=3) were seeded and treated with the required drugs/compounds or vehicle for 14 days. Media was refreshed every 4-5 days. Colonies were fixed and stained using 0.5% (w/v) crystal violet (Sigma, C0775) in 20% (v/v) methanol for 30 min, washed with distilled deionized water, and air-dried. To quantify staining, we washed the stained wells with 500 μL 10% acetic acid and using colorimetric assays determined the absorbance at 590 nm using a spectrophotometer (Synergy HT, BioTek Instruments, Vermont-USA).

The next data set deals with AR target genes. In words: qRT-PCR of DHT-induced AR target gene expression. Type of data set: cell-based, human. The note with it: LNCaP and VCaP, 100 nM THZ1. As to the method: For AR signaling stimulation experiments, cells were plated in complete media at required confluency. After 24 h cells were washed with DPBS and cultured in RPMI/DMEM without Phenol Red (Invitrogen, 11835030) and 10% charcoal-dextran stripped FBS (Gemini BioProducts, 100-119) for 72 h. Cells were then stimulated with 10 nM DHT for the specific time points.
Total RNA was isolated from cells using miRNeasy Mini Kit (Qiagen, 74106) and cDNA was synthesized from 1 μg total RNA using SuperScriptIV (Life Technologies, 18090200). qRT-PCR was performed using Fast SYBR Master Mix (Life Technologies, 4385617) or Taqman Fast Advance MMIX (Life Technologies, 4444964), and analyzed on QuantStudio3 (Applied Biosystems, USA). The target mRNA expression was quantified using ΔΔCt method, as normalized to GAPDH transcript levels. Primers were designed using Primer3 Input (version 0.4.0) (bioinfo.ut.ee/primer3-0.4.0/primer3) and synthesized by Integrated DNA Technologies.

Another data set concerns DU145 cells. The experiment in a line: RNA-seq gene expression profiling. The following applies: DU145, 100 nM THZ1, 24 h. Type of data set: cell-based, human. As to the method: (§1) RNA-seq libraries were constructed using the TruSeq sample Prep Kit V2 (Illumina) according to the manufacturer's instructions. Briefly, 1 μg of purified RNA was poly-A selected and fragmented with fragmentation enzyme. After first and second strand synthesis from a template of poly-A selected/fragmented RNA, other procedures from end-repair to PCR amplification were performed according to the instructions given in the protocol. Libraries were purified and validated for appropriate size on a 2100 Bioanalyzer DNA 1000 chip (Agilent Technologies, Inc.). The DNA library was quantitated using Qubit and normalized to 4 nM prior to pooling. Libraries were pooled in an equimolar fashion and diluted to a final concentration of 1.8 pM. Library pools were clustered and run on Nextseq500 platform (Illumina Inc.) with single-end reads of 75 bases.
(§2) Single-end sequencing reads were demultiplexed using Illumina bcl2fastq, quality checked using FASTQC (bioinformatics.babraham ac uk/projects/fastqc), and aligned to the GRCh37 (release 27) genome using the STAR v2.5.1 aligner, with default settings. The read statistics generated by STAR v2.5.1 was used to ensure that the aligned reads in all samples were over 90% of the total reads. The transcripts were assembled using cufflinks and the count and FPKM tables were computed using cuffnorm. Principal component analysis on the FPKM values was used to cluster the samples for further quality check.
(§3) Genes differentially expressed between any two sets of treatment were determined using DESeq2 (bioconductor.org/packages/release/bioc/html/DESeq.html), a statistical tool that employs shrinkage estimates to compute fold changes. In all our calculations, the raw RNA-seq read counts from biological duplicates, for each treatment condition, was used as the input for DESeq2.

Another data set has as its system LNCaP cells. The experiment in a line: RNA-seq gene expression profiling. It is filed as cell-based, human. The note with it: 100 nM THZ1, 24 h. The procedure:
as §1, §2, §3

The subject of another data set is VCaP cells. The experiment in a line: RNA-seq gene expression profiling. Type of data set: cell-based, human. The following applies: 100 nM THZ1, 24 h. The procedure: as §1, §2, §3
In another data set the test system is VCaP CRPC xenograft. In words: VCaP CRPC mouse xenograft. It is filed as in vivo. The procedure: (§4) In vivo efficacy studies were performed in accordance with protocols approved by the Institutional Animal Care and Use Committee (IACUC) at the University of Pennsylvania and in compliance with all regulatory standards. Four to five-week-old male NOD SCID gamma mice (Jackson Lab, 005557) were procured from Jackson Laboratory. In the VCaP experiment, 2×10^6 VCaP prostate cancer cells suspended in 80 μL of RPMI-1640 with 50% Matrigel (BD Biosciences) were implanted subcutaneously into the dorsal flank of the mice. The animals were castrated when the tumor volumes reached approximately 150 mm^3. […] Tumor growth was recorded using digital calipers and tumor volumes were estimated using the formula (π/6) (L×W^2), where L=length and W=width of tumor. Body weight during the study was also monitored. At the end of the treatment regimen the mice were sacrificed and were extracted for further analysis.
(§5) Xenograft tumor pieces were fixed in 4% of formaldehyde for 48 h and paraffin embedded. Paraffin embedded sections from the tumors of treated and untreated mice were deparaffinized, rehydrated and subjected to epitope retrieval stained with a phospho-MED1 antibody (1:4000/1:2000), anti-PSA antibody (1:1000), anti-Ki67 (1:500), or anti-cleaved caspase3 antibody (1:1000) followed by peroxidase-based detection and counterstaining with hematoxylin using the Leica Bond Rxm system. Photographs were taken on a Leica DMI6000B inverted light and fluorescent microscope with a 20× objective. images were assessed and quantified in ImageJ.
Whole blood of the xenograft bearing mice was collected with heparinized blood collecting tubes (Fisherbrand, 02-668-10), and cells were removed from plasma by centrifugation for 10 minutes at 2,000 g at 4° C. The plasma was used to detect PSA levels using the Human PSA ELBA Kit (Abeam, ab113327) following the manufacturer's protocol. In brief, we diluted the mice plasma ten time with Assay Diluent A, and LNCaP culturing media was used as a positive control. Serially diluted standards were used for quantification. 100 μL of each sample was loaded on the human PSA specific antibody coated 96-well plate in duplicates and the plate was incubated overnight at 4° C. to allow the PSA presented in samples to bind to the wells. The wells were then washed, and biotinylated anti-Human PSA antibody was added. After washing away unbound biotinylated antibody, HRP-conjugated streptavidin was added into the wells. The wells were again washed and developed with a TMB substrate solution followed by the addition of the stop solution and colorimetric measurement of the intensity at 450 nm. The concentrations of the PSA in the samples were calculated based on the standard curve.

Data set [1] relates to AR-negative DU145 xenografts. The experiment in a line: DU145 mouse xenograft. It is filed as in vivo. The note with it: 10 mg/kg b.i.d., four weeks. As to the method:
as §4, §5

Setting [2] is: residual tumors, 10 mg/kg b.i.d., four weeks.

Consider `CN(C)C/C=C/C(=O)Nc1ccc(C(=O)Nc2cccc(Nc3ncc(Cl)c(-c4c[nH]c5ccccc45)n3)c2)cc1` [THZ1], for which, in the data set on AR-positive cells, the long-term colony formation entry is listed as “severely inhibited long-term colony formation”. The “DHT-induced AR target gene expression” value in the data set with AR target genes is reported as “phenocopied the reduction in DHT-induced gene expression”. In addition, in the data set on DU145 cells, the “genes down (RNA-seq)” value came out at 190 and the “genes up (RNA-seq)” value is reported as 191. Besides, in the data set on LNCaP cells, the “genes down (RNA-seq)” value is listed as 1695 and the “genes up (RNA-seq)” value was found to be 2612. In the data set with VCaP cells, the “genes down (RNA-seq)” value came out at 1203 and the “genes up (RNA-seq)” value came out at 1325. In addition, in the data set on VCaP CRPC xenograft (10 mg/kg b.i.d., four weeks), the systemic toxicity result is recorded as “well tolerated with no treatment-related systemic toxicity observed” and the “tumor p-MED1 levels” value is given as “significant reduction in p-MED1 levels”. For the same molecule, in the data set with VCaP CRPC xenograft (10 mg/kg b.i.d., four weeks, vs vehicle treated mice), the “plasma PSA expression” value is recorded as “significantly reduced”. Further, the animal weight result in the data set on VCaP CRPC xenograft (10 mg/kg twice daily, 4 weeks) is “does not affect the animal weight”. In addition, the tumor volume result in the data set on VCaP CRPC xenograft (castrated mice, 10 mg/kg b.i.d. intraperitoneally, four weeks, vs vehicle) is on record as “dramatic tumor regression”. In the data set on VCaP CRPC xenograft (setting [2]), the “tumor PSA expression (IHC)” value is reported as “loss of PSA expression”, the “tumor apoptosis (cleaved caspase-3)” value is given as “increased apoptosis”, the tumor necrosis entry was “necrosis” and the “tumor proliferative activity (KI-67)” value was “reduced proliferative activity”. In data set [1] (vs vehicle), the “tumor Ki-67” value is listed as “lower Ki-67”, the tumor apoptosis entry is recorded as “increased apoptosis” and the “tumor p-MED1 levels” value was “reduced p-MED1 levels”. Moreover, the tumor growth entry in data set [1] (castrated mice) is on record as “tumor growth inhibition”.

The values are drawn from patent US12678438B2, “Treatment of cancer with CDK inhibitors” (THE TRUSTEES OF THE UNIVERSITY OF PENNSYLVANIA, priority 2019, dated 2026).
